These are literature values, as cited in patent publication US20140142181A1, “TREATING AND INHIBITING RECURRENCE OF MUSCLE CRAMPS” (priority 2012, published 2014).

For series [1], the system named is cramping. The note with it: 39 Division I baseball players; creatine supplementation during training and competition.
For series [2] the following is noted: received by USFDA; quinine use.

Turning to `CN(CC(=O)O)C(=N)N` [creatine], the “Cramping, creatine group versus non-creatine group” value in series [1] is recorded as “no significant difference”. As for `C=C[C@H]1C[N@@]2CC[C@H]1C[C@H]2[C@H](O)c1ccnc2ccc(OC)cc12` [quinine, Quinine], in series [2], the “Deaths among reported adverse events” value is on record as 93 and the “Reports of adverse events with serious outcomes” value is 665.
